Results taken from patent US11786542B2, “Methods for enhancing cytotoxic cancer therapy through modulation of purine biosynthesis pathways” (NORTHWESTERN UNIVERSITY, priority 2019, dated 2023).
“Also recorded” adds a separate entry of the source.

Experiments:
[1] = in vivo; cited from earlier work
PDX GBM lines = experiment: Cell viability of PDX GBM lines post therapy, trypan blue exclusion; type: cell-based; conditions: CellCept combined with TMZ
Method: (§1) FIG. 10A-10C. […] A) Pictorial representation of cell viability post therapy. B) Cell viability measured by trypan blue exclusion method. C) Mice with orthotopic GBM43 treated with vehicle DMSO, TMZ 2.5 mg/kg for 5 days, MMF (20 mg/kg for 4 days and in combination and monitored by endpoint survival.

orthotopic GBM43 = experiment: Orthotopic PDX GBM mouse model, endpoint survival, IMPDH inhibitor with TMZ; type: in vivo, Mice; conditions: for survival benefits in vivo and vitro models: mouse
Method: as §1
(§2) Glioblastoma, a universally lethal primary brain tumor, harnesses cellular plasticity to drive therapeutic adaptation. Critical factors in developing this plasticity are histone modifiers such as Polycomb Repressor Complex 2 protein EZH2. […] Concurrently, we observed an increase in H3K27ac at the transcription start site of ARL13B as well as a lack of H3K27 tri-methylation, EZH2's canonical histone mark. Based on this we hypothesize that EZH2 could be non-canonically regulating ARL13B to allow for cellular plasticity and ultimately drive therapeutic adaptation. […] Searching for a mechanism behind this survival benefit, we preformed mass spectrometry on an ARL13B pulldown in a patient derived xenograft line during TMZ therapy and identified inosine monophosphate dehydrogenase 2 (IMPDH2), the rate-limiting enzyme in de-novo guanine nucleotide biosynthesis, as a significant binding partner of ARL13B during TMZ chemotherapy (p-value<0.0001). Probing this novel interaction further we examined the de-novo and salvage purine biosynthesis pathways using radiolabeled carbon tracing experiments. […] This synthesis shift forces cells to uptake and incorporate purines that have been alkylated by TMZ therapy which increases DNA double strand breaks and ultimately impairs therapeutic adaptation.

EAE and stroke = conditions: cited from earlier work
IMPDH = conditions: cited from earlier work
salvage pathway = experiment: [3H]-hypoxanthine isotope tracing, salvage purine biosynthesis; type: cell-based; conditions: cells with endogenous ARL13B; listed as temozolomide
Method: (§3) FIG. 4A-4E. IMPDH2-ARL13B interaction during TMZ therapy influences purine biosynthesis. A) Schematic diagram of purine biosynthesis. Isotope tracing analysis performed with ^14C glycine for de novo and ^3H hypoxanthine for salvage pathway. […] D)^14C glycine incorporation via de novo synthesis of the DNA and RNA with or without TMZ therapy in the presence and absence of ARL13B. U251 GBM cells were pulsed for 6 h with ^14C glycine, DNA and RNA were isolated, and ^14C incorporation was measured by […]. E) ^3H hypoxanthine incorporation via salvage pathway.
2.5. The ARL13B-IMPDH2 interaction during TMZ therapy alters the path to purine biosynthesis: IMPDH controls the gateway to purine nucleotides, by analyzing the rate-limiting reaction of de novo GTP biosynthesis at the inosine monophosphate (IMP) metabolic branch point^36 (FIG. 4A). This critical reaction appears to be present in every organism. Alternatively, purine bases, released by hydrolytic degradation of nucleic acids and nucleotides, can be salvaged and recycled. This is an energy-saving pathway for purine biosynthesis, and its inefficiency can result in many pathological conditions including Lesch-Nyhan syndrome^37. In cancer, rapid cell division results in a high demand for purine nucleotides that generally cannot be sustained by salvage pathways, which may explain the importance of IMPDH in cancer^14, 38. […]

[2] = patients; cited from earlier work
de novo pathway = experiment: [14C]-glycine isotope tracing, de novo purine biosynthesis; type: cell-based; conditions: for de novo pathway activity during TMZ therapy: cells with endogenous ARL13B
Method: as §3
2.5. The ARL13B-IMPDH2 interaction during TMZ therapy alters the path to purine biosynthesis: IMPDH controls the gateway to purine nucleotides, by analyzing the rate-limiting reaction of de novo GTP biosynthesis at the inosine monophosphate (IMP) metabolic branch point^36 (FIG. 4A). This critical reaction appears to be present in every organism. Alternatively, purine bases, released by hydrolytic degradation of nucleic acids and nucleotides, can be salvaged and recycled. This is an energy-saving pathway for purine biosynthesis, and its inefficiency can result in many pathological conditions including Lesch-Nyhan syndrome^37. In cancer, rapid cell division results in a high demand for purine nucleotides that generally cannot be sustained by salvage pathways, which may explain the importance of IMPDH in cancer^14, 38. This information, combined with our finding of a direct interaction between ARL13B and IMPDH2 during TMZ therapy, allows us to postulate that such an interaction may be playing a role in regulation of purine biosynthesis pathway. To investigate further, we first performed [^14C]-glycine (de novo) and [^3H]-hypoxanthine (salvage) pulse-chase study during therapy, which allowed us to measure the activity of specific purine biosynthesis pathways^39 (FIG. 4A). […] Moreover, removal or ARL13B enhanced the salvage activity about 5-fold (FIG. 4E, p<0.0005). Based on this, we conclude that ARL13B may act as a negative regulator for the salvage pathway and is play a role in therapy-induced switch of the purine biosynthesis.

[3] = system: ARL13B knocked out GBM lines; experiment: DNA damage by H2X foci in ARL13B knockout/knockdown GBM cells treated with TMZ; type: cell-based; conditions: ARL13B knockout/knockdown cells vs control cells, both exposed to TMZ
Method: (§4) FIG. 5A-5D. Removal of ARL13B sensitizes GBM to TMZ therapy. […] B) Quantitative measure of H2X foci of different conditions counted in 100 cells. C) and D) shRNA mediated knockdown of ARL13B PDX lines were implanted in the nu/nu mice intracranially. After tumor establishment (7 days post implantation measured by BLI) animals were treated with suboptimal dose of TMZ (2.5 mg/kg) for 5 consecutive days. Animals were monitored for endpoint survival. C) GBMS PDX which is a mesenchymal subtype and D) GBM6, a classical subtype.
Creation of this alkylated purine causes a base pair mismatch in DNA (G-T) which results in DNA damage and cell cycle arrest and apoptosis (PMID: 15322239). Because of the nature of temozolomide chemotherapy-induced DNA damage, we chose to examine whether or not salvage pathway synthesis carried an implicit sensitivity to this alkylating chemotherapy. […] However, it did decrease the utilization of the salvage pathway by roughly 50%. Next, we subjected our ARL13B knockout cells to a standard dose of Temozolomide chemotherapy and checked whether they had more DNA double-stranded breaks by utilizing gamma h2ax foci counting. […]
2.6. […] After tumor engraftment animals were treated with vehicle control or TMZ (2.5 mg/kg) for 5 consecutive days and animals were monitored by endpoint survival. […]

Glioblastoma (GBM) = conditions: combined with radiotherapy after surgery; cited from earlier work
IMPDH2 = IMPDH2 enzymatic activity, formazin reduction assay; type: biochemical; conditions: over 8 days of TMZ exposure (p<0.001)
From the text: as §2

[4] = system: ARL13B knockdown PDX GBM (GBM5, GBM6); experiment: Intracranial ARL13B knockdown PDX xenografts treated with TMZ, endpoint survival; type: in vivo, nu/nu mice; conditions: TMZ 2.5 mg/kg for 5 days
Method: as §4
2.6. ARL13B KD enhances the therapeutic efficacy of TMZ both in vitro and in vivo: The monofunctional DNA-alkylating agent TMZ is a commonly used chemotherapeutic drug and the gold standard of treatment for GBM. Although the activity of the DNA repair enzyme O6-methylguanine-DNA methyltransferase (MGMT) has been identified as the critical modulator to determine the GBM sensitivity to TMZ, all GBMs, even those with MGMT inactivation, eventually stop responding to TMZ. This begs question whether an alternative mechanism of resistance may be involved in GBM. The anti-GBM activity of TMZ is predominately provoked by O6-methylguanine-DNA adducts. […] After tumor engraftment animals were treated with vehicle control or TMZ (2.5 mg/kg) for 5 consecutive days and animals were monitored by endpoint survival. […]

[5] = Blood-brain barrier crossing of the EZH2 inhibitor, orthotopic PDX model; type: in vivo
From the text: (§5) 2.1. […] One such epigenetic regulator is the Polycomb Repressor Complex 2 (PRC2), a critical family protein that is essential for maintaining the self-renewal ability of adult and embryonic stem cells^22, 23. This complex is involved in transcription silencing via chromatin compaction by catalyzing the methylation of the histone H3 at lysine 27. The catalytic subunit of the PRC2 complex, Enhancer Of Zeste 2 (EZH2), has been linked to aggressive progression of multiple cancers, including GBMs^24 25. The function of EZH2 is closely related to the cancer stem cell (CSC) phenotype, mesenchymal transition and radioresistance, which is associated with post-surgery relapse of GBM^24-26. However, its role in promoting chemoresistance properties in GBM is yet to be investigated. To this end, we have examined the role of the EZH2-PRC2 complex in promoting TMZ resistance.

GBM flank model = experiment: GBM flank model, tumor growth, EZH2 inhibitor plus TMZ; type: in vivo
From the text: FIG. 1A-1D. ARL13B is a downstream target for EZH2 non-canonical function. A) EZH2 expression is elevated during (day 3-D3) and post (D18) TMZ therapy. Therapy resistant glioma stem cell (CD133+) express high EZH2 post therapy (left). […] C) To examine the role of non-canonical function in TMZ resistance GBM43 (proneural) and GBM6 (Classical) PDX GBM treated with TMZ or TMZ+EZH2 inhibitor and subject to RNAseq analysis. […] We identified ARL13B as the top hit from this screen. D) shRNA mediated knockdown of EZH2 leads to downregulation of ARL13B.
as §5, with “To this end, we have examined the role of the EZH2-PRC2 complex in promoting TMZ resistance.” left out

Question: With `COc1c(C)c2c(c(O)c1C/C=C(\C)CCC(=O)OCCN1CCOCC1)C(=O)OC2` [CellCept, mycophenolic mofetil] as the compound, how does the “crossing of the blood-brain barrier (BBB)” value [1] read?
Answer: ability to cross the blood-brain barrier

Question: What about the “sensitization to TMZ therapy in vitro” value (PDX GBM lines) of the same compound?
Answer: sensitizes PDX GBM lines to TMZ therapy; also recorded: significantly improved the therapeutic efficacy of TMZ-based anti-GBM chemotherapy

Question: And the “therapeutic efficacy of TMZ-based chemotherapy, animal model” value (orthotopic GBM43; CellCept combined with TMZ, PDX model (FIG. 10))?
Answer: corporation between CellCept and TMZ; also recorded: significantly improved the therapeutic efficacy of TMZ-based anti-GBM chemotherapy

Question: And the “survival benefits in vivo and vitro models” value (orthotopic GBM43)?
Answer: robust survival benefits

Question: What about the median survival (orthotopic GBM43; orthotopic PDX mouse model, only when in combination with TMZ (p<0.01)) of the same compound?
Answer: significantly extended median survival

Question: And the “neuroprotection against inflammatory conditions” value (EAE and stroke)?
Answer: promoted neuroprotection

Question: With `CC[C@H](CC#N)OC(=O)N[C@@H](C)c1cccc(NC(=O)Nc2ccc(-c3cnco3)c(OC)c2)c1` [AVN944] as the compound, how does the “IMPDH activity as compared to CellCept” value (IMPDH) read?
Answer: enhanced IMPDH activity as compared to CellCept

Question: Which results are given for `Cn1nnc2c(C(N)=O)ncn2c1=O` [TMZ, 3,4-dihydro-3methyl-4-oxoimidazo[5,1-d]-1,2,3,5-tetrazine-8-carboxamide]?
Answer: decrease of salvage pathway activity during TMZ therapy (salvage pathway): roughly 50%; peak cerebral spinal fluid and serum concentrations [2]: 50 µM; decrease of de novo pathway usage in a TMZ specific manner (de novo pathway; ARL13B knockdown / removal): about 50%; de novo pathway activity in a TMZ-specific manner (de novo pathway; ARL13B knocked-out cells): inhibited in a TMZ-specific manner; also recorded: reduced significantly in a TMZ-specific manner; de novo pathway activity during TMZ therapy (de novo pathway): remained unchanged; also recorded: did not alter the de novo synthesis pathway; de novo pathway activity during TMZ therapy (de novo pathway; listed as temozolomide): did not statistically change; DNA damage / double-strand breaks (H2X foci) [3]: robust increase in DNA double-strand breaks; also recorded: significantly elevated DNA damage; DNA damage / double-strand breaks (H2X foci) ([3]; listed as Temozolomide): significantly more foci; improvement of overall survival time (Glioblastoma (GBM)): 4-6 months; IMPDH2 enzymatic activity (IMPDH2): decrease in activity; improvement in overall survival compared to control ([4]; classical subtype GBM6, ARL13B KD): 39%; animals that did not develop any tumor ([4]; mesenchymal subtype, ARL13B KO GBM): 80%

Question: Which “crossing of the blood-brain barrier” value [5] does the source give for `CCCc1cc(C)[nH]c(=O)c1CNC(=O)c1cc(-c2ccc(N3CCN(C(C)C)CC3)nc2)cc2c1cnn2C(C)C` [EZH2 inhibitor] here?
Answer: failed to cross the blood-brain barrier

Question: And the “tumor growth / therapeutic efficacy of TMZ in flank model” value (GBM flank model)?
Answer: can block the tumor growth; also recorded: significantly enhanced the therapeutic efficacy of TMZ

Question: Which “survival benefits in vivo and vitro models” value (orthotopic GBM43) does the source give for `NC(=O)c1ncn([C@@H]2O[C@H](CO)[C@@H](O)[C@H]2O)c1O` [Mizoribine, mizoribine] here?
Answer: robust survival benefits
